Source: the NIST ThermoML archive (doi:10.1016/j.jct.2017.03.006)
Numbers after ± are expanded uncertainties.

Test: xn = mol fraction of the nth substance listed
Settings: 313.15 K, Liquid; for viscosity: Concentric cylinders viscometry; for mass density: Vibrating tube method

Question: Which results are given for `Cc1ccc(C)c(C)c1` [1,2,4-trimethylbenzene] + CCC(C)O?
Answer: viscosity (100 kPa, x2 = 0.5298): 0.773 ± 0.017 mPa·s; viscosity (100 kPa, x2 = 0.6001): 0.84 ± 0.018 mPa·s; viscosity (100 kPa, x2 = 0.7001): 0.94 ± 0.02 mPa·s; viscosity (100 kPa, x2 = 0.7997): 1.09 ± 0.023 mPa·s; viscosity (100 kPa, x2 = 0.9001): 1.35 ± 0.028 mPa·s; mass density (100 kPa, x2 = 0): 859 ± 0.7 kg/m3; mass density (100 kPa, x2 = 0.1): 852.6 ± 0.7 kg/m3; mass density (100 kPa, x2 = 0.1989): 846.6 ± 0.7 kg/m3; mass density (100 kPa, x2 = 0.3011): 840.2 ± 0.7 kg/m3; mass density (100 kPa, x2 = 0.4002): 834 ± 0.7 kg/m3; mass density (100 kPa, x2 = 0.5001): 827.5 ± 0.7 kg/m3; mass density (100 kPa, x2 = 0.5997): 820.6 ± 0.7 kg/m3; mass density (100 kPa, x2 = 0.6999): 813.4 ± 0.7 kg/m3; mass density (100 kPa, x2 = 0.7999): 806 ± 0.7 kg/m3; mass density (100 kPa, x2 = 0.9): 797.9 ± 0.7 kg/m3; mass density (1000 kPa, x2 = 0): 859.7 ± 0.7 kg/m3; mass density (1000 kPa, x2 = 0.1): 853.3 ± 0.7 kg/m3; mass density (1000 kPa, x2 = 0.1989): 847.2 ± 0.7 kg/m3; mass density (1000 kPa, x2 = 0.3011): 840.9 ± 0.7 kg/m3; mass density (1000 kPa, x2 = 0.4002): 834.7 ± 0.7 kg/m3; mass density (1000 kPa, x2 = 0.5001): 828.2 ± 0.7 kg/m3; mass density (1000 kPa, x2 = 0.5997): 821.3 ± 0.7 kg/m3; mass density (1000 kPa, x2 = 0.6999): 814.2 ± 0.7 kg/m3; mass density (1000 kPa, x2 = 0.7999): 806.7 ± 0.7 kg/m3; mass density (1000 kPa, x2 = 0.9): 798.7 ± 0.7 kg/m3; mass density (2000 kPa, x2 = 0): 860.4 ± 0.7 kg/m3; mass density (2000 kPa, x2 = 0.1): 854.1 ± 0.7 kg/m3; mass density (2000 kPa, x2 = 0.1989): 848 ± 0.7 kg/m3; mass density (2000 kPa, x2 = 0.3011): 841.7 ± 0.7 kg/m3; mass density (2000 kPa, x2 = 0.4002): 835.6 ± 0.7 kg/m3; mass density (2000 kPa, x2 = 0.5001): 829.1 ± 0.7 kg/m3; mass density (2000 kPa, x2 = 0.5997): 822.2 ± 0.7 kg/m3; mass density (2000 kPa, x2 = 0.6999): 815 ± 0.7 kg/m3; mass density (2000 kPa, x2 = 0.7999): 807.6 ± 0.7 kg/m3; mass density (2000 kPa, x2 = 0.9): 799.6 ± 0.7 kg/m3; mass density (5000 kPa, x2 = 0): 862.6 ± 0.7 kg/m3; mass density (5000 kPa, x2 = 0.1): 856.3 ± 0.7 kg/m3; mass density (5000 kPa, x2 = 0.1989): 850.3 ± 0.7 kg/m3; mass density (5000 kPa, x2 = 0.3011): 844.1 ± 0.7 kg/m3; mass density (5000 kPa, x2 = 0.4002): 838 ± 0.7 kg/m3; mass density (5000 kPa, x2 = 0.5001): 831.5 ± 0.7 kg/m3; mass density (5000 kPa, x2 = 0.5997): 824.6 ± 0.7 kg/m3; mass density (5000 kPa, x2 = 0.6999): 817.5 ± 0.7 kg/m3; mass density (5000 kPa, x2 = 0.7999): 810.1 ± 0.7 kg/m3; mass density (5000 kPa, x2 = 0.9): 802.1 ± 0.7 kg/m3; mass density (10000 kPa, x2 = 0): 866 ± 0.7 kg/m3; mass density (10000 kPa, x2 = 0.1): 860 ± 0.7 kg/m3; mass density (10000 kPa, x2 = 0.1989): 854.1 ± 0.7 kg/m3; mass density (10000 kPa, x2 = 0.3011): 847.9 ± 0.7 kg/m3; mass density (10000 kPa, x2 = 0.4002): 841.7 ± 0.7 kg/m3; mass density (10000 kPa, x2 = 0.5001): 835.4 ± 0.7 kg/m3; mass density (10000 kPa, x2 = 0.5997): 828.5 ± 0.7 kg/m3; mass density (10000 kPa, x2 = 0.6999): 821.5 ± 0.7 kg/m3; mass density (10000 kPa, x2 = 0.7999): 814.2 ± 0.7 kg/m3; mass density (10000 kPa, x2 = 0.9): 806.2 ± 0.7 kg/m3; mass density (15000 kPa, x2 = 0): 869.3 ± 0.7 kg/m3; mass density (15000 kPa, x2 = 0.1): 863.5 ± 0.7 kg/m3; mass density (15000 kPa, x2 = 0.1989): 857.6 ± 0.7 kg/m3; mass density (15000 kPa, x2 = 0.3011): 851.5 ± 0.7 kg/m3; mass density (15000 kPa, x2 = 0.4002): 845.4 ± 0.7 kg/m3; mass density (15000 kPa, x2 = 0.5001): 839.1 ± 0.7 kg/m3; mass density (15000 kPa, x2 = 0.5997): 832.3 ± 0.7 kg/m3; mass density (15000 kPa, x2 = 0.6999): 825.3 ± 0.7 kg/m3; mass density (15000 kPa, x2 = 0.7999): 818 ± 0.7 kg/m3; mass density (15000 kPa, x2 = 0.9): 810.1 ± 0.7 kg/m3; mass density (20000 kPa, x2 = 0): 872.6 ± 0.7 kg/m3; mass density (20000 kPa, x2 = 0.1): 866.8 ± 0.7 kg/m3; mass density (20000 kPa, x2 = 0.1989): 861 ± 0.7 kg/m3; mass density (20000 kPa, x2 = 0.3011): 854.9 ± 0.7 kg/m3; mass density (20000 kPa, x2 = 0.4002): 848.9 ± 0.7 kg/m3; mass density (20000 kPa, x2 = 0.5001): 842.6 ± 0.7 kg/m3; mass density (20000 kPa, x2 = 0.5997): 835.9 ± 0.7 kg/m3; mass density (20000 kPa, x2 = 0.6999): 829 ± 0.7 kg/m3; mass density (20000 kPa, x2 = 0.7999): 821.7 ± 0.7 kg/m3; mass density (20000 kPa, x2 = 0.9): 813.8 ± 0.7 kg/m3; mass density (30000 kPa, x2 = 0): 878.7 ± 0.7 kg/m3; mass density (30000 kPa, x2 = 0.1): 873.2 ± 0.7 kg/m3; mass density (30000 kPa, x2 = 0.1989): 867.5 ± 0.7 kg/m3; mass density (30000 kPa, x2 = 0.3011): 861.5 ± 0.7 kg/m3; mass density (30000 kPa, x2 = 0.4002): 855.6 ± 0.7 kg/m3; mass density (30000 kPa, x2 = 0.5001): 849.4 ± 0.7 kg/m3; mass density (30000 kPa, x2 = 0.5997): 842.8 ± 0.8 kg/m3; mass density (30000 kPa, x2 = 0.6999): 835.8 ± 0.8 kg/m3; mass density (30000 kPa, x2 = 0.7999): 828.6 ± 0.8 kg/m3; mass density (30000 kPa, x2 = 0.9): 820.8 ± 0.8 kg/m3; mass density (40000 kPa, x2 = 0): 884.5 ± 0.7 kg/m3; mass density (40000 kPa, x2 = 0.1): 879.2 ± 0.7 kg/m3; mass density (40000 kPa, x2 = 0.1989): 873.5 ± 0.8 kg/m3; mass density (40000 kPa, x2 = 0.3011): 867.6 ± 0.8 kg/m3; mass density (40000 kPa, x2 = 0.4002): 861.7 ± 0.8 kg/m3; mass density (40000 kPa, x2 = 0.5001): 855.8 ± 0.8 kg/m3; mass density (40000 kPa, x2 = 0.5997): 849 ± 0.8 kg/m3; mass density (40000 kPa, x2 = 0.6999): 842.2 ± 0.8 kg/m3; mass density (40000 kPa, x2 = 0.7999): 835 ± 0.8 kg/m3; mass density (40000 kPa, x2 = 0.9): 827.3 ± 0.8 kg/m3; mass density (50000 kPa, x2 = 0): 889.9 ± 0.8 kg/m3; mass density (50000 kPa, x2 = 0.1): 884.8 ± 0.8 kg/m3; mass density (50000 kPa, x2 = 0.1989): 879.3 ± 0.8 kg/m3; mass density (50000 kPa, x2 = 0.3011): 873.4 ± 0.8 kg/m3; mass density (50000 kPa, x2 = 0.4002): 867.5 ± 0.8 kg/m3; mass density (50000 kPa, x2 = 0.5001): 861.6 ± 0.8 kg/m3
